According to US20240409662A1, “ANTIBODY MASKS AND USES THEREOF” (Vibrant Pharma Limited, priority 2021, published 2024):
Positions count from the first letter of the chain named. Names and notes keep the numbering of the source. Where two headings read alike, the source gives them in different places. No end group written: not given here.

Experiments:
[1] = test system: SP34; assay: Masking capability of potential masks of SP34 (ELISA, BLI); assay type: binding; conditions: mask and linker fused to SP34 VH and/or VL
Procedure: Binding of the 19 M-TCEs to both their antigens CEACAM5 and CD3δε was assessed with BLI using ForteBio Red96 as described above.

[2] = test system: HT29 cells; assay: PBMC co-cultivation assay, M-TCE-induced killing of HT29 cells; assay type: cell-based, human; conditions: for EC50: HT29 + human PBMC, 72 hours, read-out: Efficacy (EC50); for tumor cell killing efficacy: digested vs undigested, in words; for Digested vs. masked: ratio of EC50 non-digested to MMP9-digested
Procedure: Five digested and undigested M-TCEs were tested for their tumor cell killing capability in the presence of human PBMC.
A total of 5×10^3 cells in RPMI1640 medium (supplemented with 10% FBS and 2 mM glutamine) of the target cell line (HT29) were seeded in 96-well plates (Day 0). A dilution series of respective antibodies was performed in assay media and added to target cells. On Day 0, a total of 5×10^4 PBMCs were added to each well, and the final reaction volume was adjusted to 200 μl. Percentage viability of target cell was measured by […]. LDH was measured after 72 hours using the Cell Counting Kit-8 (CK04, Dojindo, Japan) according to the manufacturer's recommendations. The results were analyzed as mean and standard deviation (SD) from triplicate wells and plotted as 4-parameter non-linear regression fittings using GraphPad Prism 9 software (GraphPad Software, San Diego, CA, USA).

[3] = biological target: CD3 on human PBMC (human, UniProt P07766 23-207); assay: cell-based or functional assay
Chain of CD3 on human PBMC (P07766 23-207): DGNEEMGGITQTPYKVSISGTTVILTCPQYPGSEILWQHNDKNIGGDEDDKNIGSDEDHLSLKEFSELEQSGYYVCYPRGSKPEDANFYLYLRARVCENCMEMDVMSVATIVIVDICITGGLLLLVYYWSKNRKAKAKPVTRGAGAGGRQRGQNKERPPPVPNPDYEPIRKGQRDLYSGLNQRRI

L5-D2E: M-TCE; QEGNEESSGGSPLGLSSGGS-SP34VH, SEQ ID NO 28
Masking Capability [1]: Yes | EC50 ([2]; MMP9-digested): 0.013 nM | EC50 ([2]; Non-digested): 0.418 nM | tumor cell killing efficacy [2]: higher efficacy in inducing tumor cell killing than their undigested counterparts | Digested vs. masked [2]: 32×

L5-WT: M-TCE; QDGNEESSGGSPLGLSSGGS-SP34VH, SEQ ID NO 16
Masking Capability [1]: Yes

L2-D2I: M-TCE; QIGNEEGSPLGLGS-SP34VH, SEQ ID NO 31
Masking Capability [1]: No

L4-D2G: M-TCE; QGGNEEGSGSPLGLGSGS-SP34VH, SEQ ID NO 33
Masking Capability [1]: Yes

L2-Q1H: M-TCE; HDGNEEGSPLGLGS-SP34VH, SEQ ID NO 22
Masking Capability [1]: No

L7-G3A: M-TCE; QDANEESSGGSGSPLGLSSGGSGS-SP34VH, SEQ ID NO 42
Masking Capability [1]: Yes

L6-WT: M-TCE; QDGNEESSGGGSPLGLSSGGGS-SP34VH, SEQ ID NO 17
Masking Capability [1]: Yes

L2-Q1E: M-TCE; EDGNEEGSPLGLGS-SP34VH, SEQ ID NO 19
Masking Capability [1]: No

L7-D2G: M-TCE; QGGNEESSGGSGSPLGLSSGGSGS-SP34VH, SEQ ID NO 36
Masking Capability [1]: Yes | EC50 ([2]; MMP9-digested): 0.011 nM | EC50 ([2]; Non-digested): 0.096 nM | tumor cell killing efficacy [2]: higher efficacy in inducing tumor cell killing than their undigested counterparts | Digested vs. masked [2]: 9×

L7-WT: M-TCE; QDGNEESSGGSGSPLGLSSGGSGS-SP34VH, SEQ ID NO 18
Masking Capability [1]: Yes

L2-G3A: M-TCE; QDANEEGSPLGLGS-SP34VH, SEQ ID NO 38
Masking Capability [1]: Yes

L2-D2R: M-TCE; QRGNEEGSPLGLGS-SP34VH, SEQ ID NO 25
Masking Capability [1]: No

L4-G3R: M-TCE; QDRNEEGSGSPLGLGSGS-SP34VH, SEQ ID NO 44
Masking Capability [1]: Yes

L2-WT: M-TCE; QDGNEEGSPLGLGS-SP34VH, SEQ ID NO 13
Masking Capability [1]: Yes

LC-L4-G2E: M-TCE, mask on VL; QEGNEEGSGSPLGLGSGS-SP34VL, SEQ ID NO 27
Masking Capability [1]: Yes

L7-D2E: M-TCE; QEGNEESSGGSGSPLGLSSGGSGS-SP34VH, SEQ ID NO 30
Masking Capability [1]: Yes

L5-G3A: M-TCE; QDANEESSGGSPLGLSSGGS-SP34VH, SEQ ID NO 40
Masking Capability [1]: Yes

L2-Q1Y: M-TCE; YDGNEEGSPLGLGS-SP34VH, SEQ ID NO 21
Masking Capability [1]: No

L2-D2G: M-TCE; QGGNEEGSPLGLGS-SP34VH, SEQ ID NO 32
Masking Capability [1]: Yes

L2-D2E: M-TCE; QEGNEEGSPLGLGS-SP34VH, SEQ ID NO 26
Masking Capability [1]: Yes

L6-D2G: M-TCE; QGGNEESSGGGSPLGLSSGGGS-SP34VH, SEQ ID NO 35
Masking Capability [1]: Yes

L6-G3R: M-TCE; QDRNEESSGGGSPLGLSSGGGS-SP34VH, SEQ ID NO 45
Masking Capability [1]: Yes

L2-Q1S: M-TCE; SDGNEEGSPLGLGS-SP34VH, SEQ ID NO 20
Masking Capability [1]: No

L2-G3I: M-TCE; QDINEEGSPLGLGS-SP34VH, SEQ ID NO 37
Masking Capability [1]: No

L4-WT: M-TCE; QDGNEEGSGSPLGLGSGS-SP34VH, SEQ ID NO 15
Masking Capability [1]: Yes

L5-D2G: M-TCE; QGGNEESSGGSPLGLSSGGS-SP34VH, SEQ ID NO 34
Masking Capability [1]: Yes

L3-WT: M-TCE; QDGNEESGSPLGLSGG-SP34VH, SEQ ID NO 14
Masking Capability [1]: Yes

L2-Q1V: M-TCE; VDGNEEGSPLGLGS-SP34VH, SEQ ID NO 23
Masking Capability [1]: No

L0-WT: M-TCE; QDGNEEPLGL-SP34VH, SEQ ID NO 12
Masking Capability [1]: Yes

L6-D2E: M-TCE; QEGNEESSGGGSPLGLSSGGGS-SP34VH, SEQ ID NO 29
Masking Capability [1]: Yes | EC50 ([2]; MMP9-digested): 0.01 nM | EC50 ([2]; Non-digested): 0.317 nM | tumor cell killing efficacy [2]: higher efficacy in inducing tumor cell killing than their undigested counterparts | Digested vs. masked [2]: 32×

L6-G3A: M-TCE; QDANEESSGGGSPLGLSSGGGS-SP34VH, SEQ ID NO 41
Masking Capability [1]: Yes

B1: SP34-CEA (bispecific antibody)
heavy: EVKLLESGGGLVQPKGSLKLSCAASGFTFNTYAMNWVRQAPGKGLEWVARIRSKYNNYATYYADSVKDRFTISRDDSQSILYLQMNNLKTEDTAMYYCVRHGNFGNSYVSWFAYWGQGTLVTVSS
light: QAVVTQESALTTSPGETVTLTCRSSTGAVTTSNYANWVQEKPDHLFTGLIGGTNKRAPGVPARFSGSLIGDKAALTITGAQTEDEAIYFCALWYSNLWVFGGGTKVEIK
chain: EVQLVESGGGFVQAGESLTLSCTSSTLTFTPYRMAWYRQAPGKQRDLVADISSGDGRTTNYADFAKGRFTISRDNIKNTVFLRMTNLKPEDTAVYYCNTFVSFVGIARSWGQGTQVTVSSESKYGPPCPPCPAPEAAGGPSVFLFPPKPKDTLMISRTPEVTCVVVDVSQEDPEVQFNWYVDGVEVHNAKTKPREEQFNSTYRVVSVLTVLHQDWLNGKEYKCKVSNKGLPSSIEKTISKAKGQPREPQVCTLPPSQEEMTKNQVSLSCAVKGFYPSDIAVEWESNGQPENNYKTTPPVLDSDGSFFLVSRLTVDKSRWQEGNVFSCSVMHEALHNRFTQKSLSLSL
EC50 of M-TCE-induced killing of HT29 cells in the presence of human PBMC [3]: 0.001 nM

B2: MMP9-digested L6-D2E (bispecific antibody, not shown: small tags and cut ends)
heavy: B1 heavy
light: B1 light
chain: B1 chain
EC50 of M-TCE-induced killing of HT29 cells in the presence of human PBMC [3]: 0.01 nM

B3: MMP9-digested L7-D2G (bispecific antibody, not shown: small tags and cut ends)
heavy: B1 heavy
light: B1 light
chain: B1 chain
EC50 of M-TCE-induced killing of HT29 cells in the presence of human PBMC [3]: 0.011 nM

B4: L4-D2E (bispecific antibody)
heavy: QEGNEEGSGSPLGLGSGSEVKLLESGGGLVQPKGSLKLSCAASGFTFNTYAMNWVRQAPGKGLEWVARIRSKYNNYATYYADSVKDRFTISRDDSQSILYLQMNNLKTEDTAMYYCVRHGNFGNSYVSWFAYWGQGTLVTVSS
light: B1 light
chain: B1 chain
Digested vs. masked (ratio of killing EC50) [3]: 59 fold | EC50 of M-TCE-induced killing of HT29 cells in the presence of human PBMC [3]: 0.65 nM

B5: L4-G3A (bispecific antibody)
heavy: B4 heavy with E2D, G3A
light: B1 light
chain: B1 chain
Digested vs. masked (ratio of killing EC50) [3]: 144 fold | EC50 of M-TCE-induced killing of HT29 cells in the presence of human PBMC [3]: 1.72 nM
